The subject of data set [1] is cancer cell lines (HCT116, NCI-H460, SiHa). As to the kind of experiment: In vitro anticancer activity, statements over all cell lines tested. The following applies: 72 h compound exposure. How it is done: (§1) HCT116 (colon cancer cells) and NCI-H460 (large cell lung carcinoma) cells were supplied by ATCC, while SiHa cells (cervical cancer) were supplied by Dr. David Cowan, Ontario Cancer Institute, Canada. Cells were maintained in αMEM (Life Technologies) with 5% FCS (fetal calf serum from Moregate Biotech) at 37° C. in a humidified incubator with 5% CO2. Cells were seeded at the appropriate density and allowed to settle for 24 hours, before the compounds (in 0.5% DMSO at the highest concentration) were added at 3-fold serial dilutions. After 72 h compound exposure, the cells were fixed with 10% TCA (trichloroacetic acid from Merck Millipore) for 1 h at 4° C., then washed before addition of 50 μl of 0.4% sulforhodamine B solution (Sigma Aldrich) for 30 min at room temperature in the dark. After washing with 1% acetic acid, the aminoxanthene dye was solubilised with 100 μl/well unbuffered Tris base (10 mM; Serva) on an orbital shaker for at least 30 min in the dark. The optical density was measured on a BioTek EL808 microplate reader at an absorbance of 490 and 450 nm (reference wavelength) and was used to determine the percentage of cell-growth inhibition. IC50 values were calculated with SigmaPlot12.5 using a three-parameter logistic sigmoidal dose-response curve between the calculated growth inhibition and the compound concentration.

Data set [2] relates to NCI-H460 (large cell lung carcinoma) cells. As to the kind of experiment: In vitro anticancer activity, sulforhodamine B assay. Conditions: NCI-H460, 72 h compound exposure, mean of 3 independent experiments. The format is cell-based. Here is the method:
as §1

Data set [3] relates to HCT116 (colon cancer cells). The description is as above. Type of data set: cell-based. The following applies: HCT116, 72 h compound exposure, mean of 3 independent experiments. Here is the method: as §1
The subject of data set [4] is SiHa cells (cervical cancer). The data set is described as above. The following applies: 72 h compound exposure, mean of 3 independent experiments. Type of data set: cell-based. How it is done:
as §1

We go through four compounds from patent publication US20180273564A1, “CARBON MONOXIDE RELEASING MOLECULES” (AUCKLAND UNISERVICES LIMITED, priority 2015, published 2018).

Several values for one entry are separate records, joined by “and”; a condition that tells them apart may be missing. Identical values can stand only once. Entries after “also recorded” stand apart in the source; their conditions may differ.

Consider `O=C(Nc1cc[n+](Cc2ccccc2)cc1)c1ccccn1.[C-]#[O+].[C-]#[O+].[C-]#[O+].[Cl][Ru-]([Cl])[Cl]` [Compound 1, [HL][Ru(CO)3Cl3]], for which, in the data set “Solubility in water”, the Solubility in water is listed as 1.45 mM. Besides, in data set [1], the “cytotoxicity to cancer cell lines” value is “most active compound in all cancer cell lines tested; also recorded: moderately cytotoxic”. In addition, the concentration for half-maximal inhibition (IC50) in data set [2] turned out to be 73 µM; in data set [3], 24 µM; in data set [4], 26 µM.
Consider `CC[N+](CC)(CC)CC.[C-]#[O+].[C-]#[O+].[C-]#[O+].[Cl-].[Cl-].[Cl-].[Ru+2]` [Compound 2, [Et4N][Ru(CO)3Cl3]], for which the Solubility in water in the data set “Solubility in water” was determined as 6.78 mM. Further, the “cytotoxicity to cancer cell lines” value in data set [1] is given as “non-cytotoxic in the investigated concentration range; also recorded: not active against any of the cancer cell lines”. Moreover, the IC50 in data set [2], in data set [3] and in data set [4] was > 1600 µM in each case.
`Cl.O=C(Nc1cc[n+](Cc2ccccc2)cc1)c1ccccn1` [[HL]Cl, 1-Benzyl-4-(picolinamido)pyridinium chloride] had a solubility in the data set “Solubility in water” (water) of 12.3 mM. In addition, the IC50 was 54 µM in data set [2] (Homo sapiens); 20 µM in data set [3] (Homo sapiens, HCT-116); 30 µM in data set [4] (Homo sapiens).
Regarding `O=C(N=c1ccn(Cc2ccccc2)cc1)c1ccccn1.[C-]#[O+].[C-]#[O+].[C-]#[O+].[C-]#[O+].[C-]#[O+].[C-]#[O+].[Cl][Ru+].[Cl][Ru-]([Cl])[Cl]` [pH-CORM-1, [Ru(CO)3Cl(L)][Ru(CO)3Cl3]], the Solubility in water in “Solubility in water” turned out to be 1.56 mM. Besides, in data set [1], the “cytotoxicity to cancer cell lines” value is listed as “moderately cytotoxic”. Further, the concentration for half-maximal inhibition (IC50) was 164 µM in data set [2]; ≤ 119 µM and 119 µM in data set [3]; 148 µM in data set [4].
